Data on 16 compounds can be found in US10752587B2, “Homobispiperidinyl derivatives as liver X receptor beta agonists, compositions and their use” (Merck Sharp & Dohme Corp., priority 2015, dated 2020).

SMILES strings stand for the structures. Read-outs that look alike come from different tables or passages of the source.

Test [1] deals with T1, glutathione-S-transferase (GST) tagged LXRbeta LBD (ligand binding domain) (Homo sapiens, UniProt P55055).
T1 construct: purchased Invitrogen pv4658.pps
T1 sequence (P55055 222-460 limits assumed): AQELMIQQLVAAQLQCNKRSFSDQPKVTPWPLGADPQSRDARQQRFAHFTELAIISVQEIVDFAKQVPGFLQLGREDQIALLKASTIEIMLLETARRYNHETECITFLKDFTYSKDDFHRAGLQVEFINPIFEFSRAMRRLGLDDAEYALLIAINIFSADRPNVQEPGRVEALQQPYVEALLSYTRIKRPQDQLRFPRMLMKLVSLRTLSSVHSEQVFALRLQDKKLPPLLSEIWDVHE
Nature of the test: LanthaScreen TR-FRET Liver X Receptor Coactivator Assay, co-activator recruitment to LXRbeta LBD. The test is classed as biochemical. Conditions: for Emax: read-out: LXR beta Activity @ max dose (%); for EC50: potency (Inflection Point, IP), co-activator recruitment to LXRbeta LBD, in relation to T0901317. In a few lines: (§1)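 LXRα- or LXRβ-LBD protein was added to test compounds, then fluorescein-labelled coactivator peptide plus Tb-anti-GST antibody; after room-temperature incubation, TR-FRET was read. Inflection point (IP) and Emax were expressed relative to the dual agonist reference T0901317.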
In general terms: TR-FRET usually uses a lanthanide donor and a delayed reading to cut background.

Test [2] has as its target T2, glutathione-S-transferase (GST) tagged LXRalpha LBD (ligand binding domain) (Homo sapiens, UniProt Q13133).
T2 construct: purchased Invitrogen pv4655
T2 sequence (Q13133 209-447 limits assumed): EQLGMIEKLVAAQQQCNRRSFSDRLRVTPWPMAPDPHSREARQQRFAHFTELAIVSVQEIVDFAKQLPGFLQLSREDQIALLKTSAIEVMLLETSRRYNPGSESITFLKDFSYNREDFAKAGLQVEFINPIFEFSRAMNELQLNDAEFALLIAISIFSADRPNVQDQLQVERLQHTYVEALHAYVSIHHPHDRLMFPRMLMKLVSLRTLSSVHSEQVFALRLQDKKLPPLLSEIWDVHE
Nature of the test: LanthaScreen TR-FRET Liver X Receptor Coactivator Assay, co-activator recruitment to LXRalpha LBD. The test is classed as biochemical. Conditions: for LXR alpha IP (nM) / EC50: potency (Inflection Point, IP), co-activator recruitment to LXRalpha LBD, in relation to T0901317; for Emax: read-out: LXR alpha Activity @ max dose (%). In a few lines: as §1

The mark [3] stands for this setting: efficacy at max dose, in relation to reference dual agonist T0901317.

Take `CN(C)C(=O)c1ccc(N2CCC(CC3CCN(C(=O)[C@](O)(c4cc(Cl)cc(Cl)c4)C(F)(F)F)CC3)CC2)nc1Cl` [Example 7-93, 2-chloro-6-[4-({1-[(2R)-2-(3,5-dichlorophenyl)-3,3,3-trifluoro-2-hydroxypropanoyl]piperidin-4-yl}methyl)piperidin-1-yl]-N,N-dimethylpyridine-3-carboxamide]: the Emax in test [1] (setting [3]) stood at 55%. The EC50 in test [1] (read-out: LXR beta IP) was determined as 6 nM. The “LXR alpha Activity @ max dose (%)” value in test [2] (setting [3]) is 1%. Moreover, the “LXR alpha IP (nM)” value in test [2] was “NO IP”.
In test [1] (LXR beta IP (nM)), `CN(C)C(=O)c1ccc(N2CCC(CC3CCN(C(=O)C(O)(c4ccccc4)C4CCCC4)CC3)CC2)nc1Cl` (stereo not shown) [Example 7-94, 2-chloro-6-[4-({1-[cyclopentyl(hydroxy)phenylacetyl]piperidin-4-yl}methyl)piperidin-1-yl]-N,N-dimethylpyridine-3-carboxamide] gave an EC50 of 72 nM. Moreover, in test [1], the Emax stood at 62%. In test [2], the “LXR alpha IP (nM)” value was “NO IP” and the Emax turned out to be 10%.
Regarding `CN(C)C(=O)c1ccc(N2CCC(CC3CCN(C(=O)C(O)(c4ccccc4)c4ccccc4)CC3)CC2)nc1Cl` [Example 7-95, 2-chloro-6-[4-({1-[hydroxy(diphenyl)acetyl]piperidin-4-yl}methyl)piperidin-1-yl]-N,N-dimethylpyridine-3-carboxamide], in test [1] (LXR beta IP (nM)), the EC50 worked out at 98 nM. In addition, in test [1], the Emax was found to be 21%. Moreover, in test [2], the “LXR alpha IP (nM)” value is recorded as “NO IP” and the Emax came to 1%.
In the case of `CN(C)C(=O)c1ccc(N2CCC(CC3CCN(C(=O)C(O)(c4ccccc4)c4ccsc4)CC3)CC2)nc1Cl` (stereo not shown) [Example 7-96, 2-chloro-6-[4-({1-[hydroxy(phenyl)thiophen-3-ylacetyl]piperidin-4-yl}methyl)piperidin-1-yl]-N,N-dimethylpyridine-3-carboxamide], in test [1] (LXR beta IP (nM)), the EC50 was found to be 89 nM. The Emax in test [1] turned out to be 23%. Further, in test [2], the “LXR alpha IP (nM)” value is given as “NO IP” and the Emax worked out at 5%.
On to `CN(C)C(=O)c1ccc(N2CCC(CC3CCN(C(=O)C(O)(c4ccccc4)C4CCC4)CC3)CC2)nc1Cl` (stereo not shown) [Example 7-97, 2-chloro-6-[4-({1-[cyclobutyl(hydroxy)phenylacetyl]piperidin-4-yl}methyl)piperidin-1-yl]-N,N-dimethylpyridine-3-carboxamide], for which the EC50 in test [1] (LXR beta IP (nM)) was 40 nM; in test [2] (LXR alpha IP (nM)) it was 1180 nM. For the same compound, the Emax was determined as 98% in test [1] and 38% in test [2].
As to `CN(C)C(=O)c1ccc(N2CCC(CC3CCN(C(=O)[C@](O)(c4ccccc4)C4CCCC4)CC3)CC2)nc1Cl` [Example 7-98, 2-chloro-6-[4-({1-[(2R)-2-cyclopentyl-2-hydroxy-2-phenylacetyl]piperidin-4-yl}methyl)piperidin-1-yl]-N,N-dimethylpyridine-3-carboxamide], the EC50 in test [1] (LXR beta IP (nM)) amounted to 74 nM; in test [2] (LXR alpha IP (nM)), 1090 nM. For the same compound, the Emax in test [1] was 76%; in test [2] it was 19%.
Regarding `CN(C)C(=O)c1ccc(N2CCC(CC3CCN(C(=O)C(O)(c4ccccc4)C4CC4)CC3)CC2)nc1Cl` (stereo not shown) [Example 7-99, 2-chloro-6-[4-({1-[cyclopropyl(hydroxy)phenylacetyl]piperidin-4-yl}methyl)piperidin-1-yl]-N,N-dimethylpyridine-3-carboxamide], the EC50 is 48 nM in test [1] (LXR beta IP (nM)) and 2790 nM in test [2] (LXR alpha IP (nM)). In addition, the Emax is 74% in test [1] and 20% in test [2].
In turn, `CN(C)C(=O)c1ccc(N2CCC(CC3CCN(C(=O)C(O)(c4ccccc4)C4CCCCC4)CC3)CC2)nc1Cl` (stereo not shown) [Example 7-100, 2-chloro-6-[4-({1-[cyclohexyl(hydroxy)phenylacetyl]piperidin-4-yl}methyl)piperidin-1-yl]-N,N-dimethylpyridine-3-carboxamide] returned an EC50 in test [1] (LXR beta IP (nM)) of 200 nM. Also, the Emax in test [1] was determined as 37%. In test [2], the “LXR alpha IP (nM)” value was “NO IP” and the Emax came to 4%.
On to `COc1cc(F)cc([C@@](O)(C(=O)N2CCC(CC3CCN(c4ccc(C(=O)N(C)C)c(Cl)n4)CC3)CC2)C(F)(F)F)c1` [Example 7-101, 2-chloro-N,N-dimethyl-6-[4-({1-[(2R)-3,3,3-trifluoro-2-(3-fluoro-5-methoxyphenyl)-2-hydroxypropanoyl]piperidin-4-yl}methyl)piperidin-1-yl]pyridine-3-carboxamide], for which the Emax in test [1] (setting [3]) came to 84%; in test [2] (setting [3]), 22%. For the same compound, the EC50 in test [1] (read-out: LXR beta IP) came out at 4 nM; in test [2] (read-out: LXR alpha IP), 41 nM.
As for `COc1cc(F)cc([C@](O)(C(=O)N2CCC(CC3CCN(c4ccc(C(=O)N(C)C)c(Cl)n4)CC3)CC2)C(F)(F)F)c1` [Example 7-102, 2-chloro-N,N-dimethyl-6-[4-({1-[(2S)-3,3,3-trifluoro-2-(3-fluoro-5-methoxyphenyl)-2-hydroxypropanoyl]piperidin-4-yl}methyl)piperidin-1-yl]pyridine-3-carboxamide], the figures for the Emax in test [1] (setting [3]) and in test [2] (setting [3]) were 114% and 16%, respectively. Further, the EC50 in test [1] (read-out: LXR beta IP) came out at 78 nM. For the same compound, the “LXR alpha IP (nM)” value in test [2] is reported as “NO IP”.
For `CN(C)C(=O)c1ccc(N2CCC(CC3CCN(C(=O)C(N)(c4ccccc4)C(F)(F)F)CC3)CC2)nc1Cl` (stereo not shown) [Example 7-103, 6-(4-{[1-(2-amino-3,3,3-trifluoro-2-phenylpropanoyl)piperidin-4-yl]methyl}piperidin-1-yl)-2-chloro-N,N-dimethylpyridine-3-carboxamide], the Emax was found to be 122% in test [1] (setting [3]) and 47% in test [2] (setting [3]). In addition, the EC50 in test [1] (read-out: LXR beta IP) turned out to be 31 nM; in test [2] (read-out: LXR alpha IP), 1680 nM.
Take `CN(C)C(=O)c1ccc(N2CCC(CC3CCN(C(=O)[C@](O)(c4cc(Cl)cc(Cl)c4)C(F)(F)F)CC3)CC2)nc1Cl` [Example 7-104, 2-chloro-6-[4-({1-[(2R)-2-(3,5-dichlorophenyl)-3,3,3-trifluoro-2-hydroxypropanoyl]piperidin-4-yl}methyl)piperidin-1-yl]-N,N-dimethylpyridine-3-carboxamide]: in test [1] (setting [3]), the “LXR beta Activity @ max dose (%)” value was 51%. For the same compound, in test [1] (read-out: LXR beta IP), the EC50 was found to be 3 nM. Further, the “LXR alpha Activity @ max dose (%)” value in test [2] (setting [3]) is given as 0%. For the same compound, the “LXR alpha IP (nM)” value in test [2] is “NO IP”.
In the case of `COc1cc(Cl)cc(C(O)(C(=O)N2CCC(CC3CCN(c4ccc(C(=O)N(C)C)c(Cl)n4)CC3)CC2)C(F)(F)F)c1` (stereo not shown) [Example 7-105, 2-chloro-6-[4-({1-[2-(3-chloro-5-methoxyphenyl)-3,3,3-trifluoro-2-hydroxypropanoyl]piperidin-4-yl}methyl)piperidin-1-yl]-N,N-dimethylpyridine-3-carboxamide], the Emax came to 30% in test [1] (setting [3]) and 0% in test [2] (setting [3]). Also, the EC50 in test [1] (read-out: LXR beta IP) came out at 76 nM. Moreover, the “LXR alpha IP (nM)” value in test [2] was “NO IP”.
In the case of `CN(C)C(=O)c1ccc(N2CCC(CC3CCN(C(=O)[C@](O)(c4cccc(OC5CC5)c4)C(F)(F)F)CC3)CC2)nc1Cl` [Example 7-106, 2-chloro-6-{4-[(1-{(2R)-2-[3-(cyclopropyloxy)phenyl]-3,3,3-trifluoro-2-hydroxypropanoyl}piperidin-4-yl)methyl]piperidin-1-yl}-N,N-dimethylpyridine-3-carboxamide], the Emax is 41% in test [1] (setting [3]) and 0% in test [2] (setting [3]). The EC50 in test [1] (read-out: LXR beta IP) came to 5 nM. Moreover, the “LXR alpha IP (nM)” value in test [2] is reported as “NO IP”.
As to `COc1cc(Cl)cc([C@@](O)(C(=O)N2CCC(CC3CCN(c4ccc(C(=O)N(C)C)c(Cl)n4)CC3)CC2)C(F)(F)F)c1` [Example 7-107, 2-chloro-6-[4-({1-[(2R)-2-(3-chloro-5-methoxyphenyl)-3,3,3-trifluoro-2-hydroxypropanoyl]piperidin-4-yl}methyl)piperidin-1-yl]-N,N-dimethylpyridine-3-carboxamide], the Emax was 26% in test [1] (setting [3]) and 0% in test [2] (setting [3]). In addition, in test [1] (read-out: LXR beta IP), the EC50 came out at 3 nM. Also, the “LXR alpha IP (nM)” value in test [2] is “NO IP”.
Regarding `COc1cc(Cl)cc([C@](O)(C(=O)N2CCC(CC3CCN(c4ccc(C(=O)N(C)C)c(Cl)n4)CC3)CC2)C(F)(F)F)c1` [Example 7-108, 2-chloro-6-[4-({1-[(2S)-2-(3-chloro-5-methoxyphenyl)-3,3,3-trifluoro-2-hydroxypropanoyl]piperidin-4-yl}methyl)piperidin-1-yl]-N,N-dimethylpyridine-3-carboxamide], the Emax was found to be 101% in test [1] (setting [3]) and 10% in test [2] (setting [3]). Further, the EC50 in test [1] (read-out: LXR beta IP) worked out at 47 nM. In addition, the “LXR alpha IP (nM)” value in test [2] is given as “NO IP”.
